Reference: patent publication US20100286219A1, “1, 3-Dihydroimidazoles for Treating Cardiovascular Disorders” (BIAL - PORTELA & CA S.A., priority 2007, published 2010)

Target: T1, human DβH (Homo sapiens, UniProt P09172)
T1 construct: endogenous in cells; host or cells: SK-N-SH cells
T1 sequence (P09172 1-617): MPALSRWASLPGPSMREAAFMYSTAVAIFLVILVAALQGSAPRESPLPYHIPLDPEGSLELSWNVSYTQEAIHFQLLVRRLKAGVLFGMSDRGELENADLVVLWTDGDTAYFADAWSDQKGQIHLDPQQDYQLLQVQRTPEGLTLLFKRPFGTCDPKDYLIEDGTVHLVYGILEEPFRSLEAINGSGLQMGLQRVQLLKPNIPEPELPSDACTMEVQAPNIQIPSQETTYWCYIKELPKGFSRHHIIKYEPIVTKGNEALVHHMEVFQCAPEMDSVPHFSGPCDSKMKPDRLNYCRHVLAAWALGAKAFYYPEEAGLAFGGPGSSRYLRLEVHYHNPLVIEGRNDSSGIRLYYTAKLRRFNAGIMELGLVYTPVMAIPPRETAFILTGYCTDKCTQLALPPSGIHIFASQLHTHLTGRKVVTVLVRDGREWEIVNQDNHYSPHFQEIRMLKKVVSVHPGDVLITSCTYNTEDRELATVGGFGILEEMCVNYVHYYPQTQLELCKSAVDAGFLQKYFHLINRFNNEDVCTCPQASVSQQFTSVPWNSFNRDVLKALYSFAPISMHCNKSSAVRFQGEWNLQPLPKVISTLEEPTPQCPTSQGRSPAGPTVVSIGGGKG
Test: DβH activity in SK-N-SH cells (β-hydroxylation of dopamine to noradrenaline)
Format: cell-based
Settings: for inhibition of DβH activity (in words): as listed in Table 1, 5 μM; for IC50 against human DβH activity (in words): concentration-dependent decrease in β-hydroxylation of dopamine; for DβH activity, Mean ± SEM, % of control: compound 5 μM

Row | SMILES | inhibition of DβH activity (in words) | IC50 against human DβH activity (in words) | DβH activity, Mean ± SEM, % of control
1 | Cl.NCCc1c[nH]c(=S)n1[C@H]1CCc2c(F)cc(F)cc2C1 [Compound 2, (S)-5-(2-aminoethyl)-1-(5,7-difluoro-1,2,3,4-tetrahydronaphthalen-2-yl)-1,3-dihydroimidazole-2-thione hydrochloride] | markedly inhibit | low nM range | 
2 | COc1cccc2c1OC[C@H](n1c(CCN)c[nH]c1=S)C2.Cl [Compound 19, (R)-5-(2-aminoethyl)-1-(8-methoxychroman-3-yl)-1,3-dihydroimidazole-2-thione hydrochloride] | markedly inhibit |  | 
3 | Cl.NCCc1c[nH]c(=S)n1[C@H]1COc2ccc(F)cc2C1 [Compound 7, (R)-5-(2-aminoethyl)-1-(6-fluorochroman-3-yl)-1,3-dihydroimidazole-2-thione hydrochloride] | markedly inhibit |  | 8.0 ± 0.1 % of control
4 | Cl.NCCc1c[nH]c(=S)n1[C@H]1COc2cc(F)c(F)cc2C1 [Compound 8, (R)-5-(2-aminoethyl)-1-(6,7-difluorochroman-3-yl)-1,3-dihydroimidazole-2-thione hydrochloride] | markedly inhibit |  | 
5 | CNCCc1c[nH]c(=S)n1[C@H]1COc2c(F)cc(F)cc2C1.Cl [Compound 28, (R)-1-(6,8-Difluorochroman-3-yl)-5-(2-methylaminoethyl)-1,3-dihydroimidazole-2-thione hydrochloride] | markedly inhibit |  | 
6 | Cl.NCCc1c[nH]c(=S)n1[C@H]1COc2ccccc2C1 [Compound 12, (R)-5-(2-aminoethyl)-1-chroman-3-yl-1,3-dihydroimidazole-2-thione hydrochloride] | markedly inhibit |  | 3.0 ± 0.5 % of control
7 | Cl.NCCc1c[nH]c(=S)n1[C@H]1COc2c(F)cccc2C1 [Compound 6, (R)-5-(2-aminoethyl)-1-(8-fluorochroman-3-yl)-1,3-dihydroimidazole-2-thione hydrochloride] | markedly inhibit |  | 
8 | CNCCc1c[nH]c(=S)n1[C@H]1COc2ccccc2C1.Cl [Compound 29, (R)-1-Chroman-3-yl-5-(2-methylaminoethyl)-1,3-dihydroimidazole-2-thione hydrochloride] | markedly inhibit |  | 
9 | Cl.NCc1c[nH]c(=S)n1[C@H]1COc2ccccc2C1 [Compound 24, (R)-5-aminomethyl-1-chroman-3-yl-1,3-dihydroimidazole-2-thione hydrochloride] | markedly inhibit |  | 0.0 ± 1.9 % of control
10 | Cl.NCCCc1c[nH]c(=S)n1[C@H]1CCc2c(F)cc(F)cc2C1 [Compound 5, (S)-5-(3-aminopropyl)-1-(5,7-difluoro-1,2,3,4-tetrahydronaphthalen-2-yl)-1,3-dihydroimidazole-2-thione hydrochloride] | markedly inhibit |  | 
11 | Cl.NCCc1c[nH]c(=S)n1[C@H]1COc2c(cc(F)c(F)c2F)C1 [Compound 10, (R)-5-(2-aminoethyl)-1-(6,7,8-trifluorochroman-3-yl)-1,3-dihydroimidazole-2-thione hydrochloride] | markedly inhibit |  | 
12 | Cl.NCCc1c[nH]c(=S)n1[C@H]1COc2ccc(O)cc2C1 [Compound 16, (R)-5-(2-aminoethyl)-1-(6-hydroxychroman-3-yl)-1,3-dihydroimidazole-2-thione hydrochloride] | markedly inhibit |  | 0.0 ± 0.6 % of control
13 | COc1ccc2c(c1)C[C@@H](n1c(CCN)c[nH]c1=S)CS2.Cl (racemic) [Compound 30, (R,S)-5-(2-aminoethyl)-1-(6-methoxythiochroman-3-yl)-1,3-dihydroimidazole-2-thione hydrochloride] |  |  | 99.4 ± 2.8 % of control
14 | Cl.NCCc1c[nH]c(=S)n1[C@H]1CSc2ccc(O)cc2C1 (racemic) [Compound 31, (R,S)-5-(2-aminoethyl)-1-(6-hydroxythiochroman-3-yl)-1,3-dihydroimidazole-2-thione hydrochloride] |  |  | 27.3 ± 0.4 % of control
15 | Cl.NCc1c[nH]c(=S)n1[C@H]1COc2c(F)cc(F)cc2C1 [Compound 3, (R)-5-aminomethyl-1-(6,8-difluorochroman-3-yl)-1,3-dihydroimidazole-2-thione hydrochloride] | markedly inhibit | low nM range | 
16 | Cl.Oc1ccc2c(c1)C[C@@H](n1c(CCNCc3ccccc3)c[nH]c1=S)CO2 [Compound 26, (R)-5-(2-Benzylaminoethyl)-1-(6-hydroxychroman-3-yl)-1,3-dihydroimidazole-2-thione hydrochloride] | markedly inhibit |  | 
